Results taken from ChEMBL document CHEMBL1151998, “Combretatroponeshybrids of combretastatin and colchicine. Synthesis and biochemical evaluation” (Bioorg Med Chem Lett, 1993).
pIC50: −log10 of the molar value.

Biological target: Tubulin beta chain (Bos taurus, UniProt Q6B856)
Assay: Compound was evaluated for in vitro inhibitory activity against polymerization of tubulin into microtubules isolated from bovine brain at 1 mg/mL tubulin concentration
Assay type: tissue-based

Tubulin beta chain, sequence (Q6B856 whole entry): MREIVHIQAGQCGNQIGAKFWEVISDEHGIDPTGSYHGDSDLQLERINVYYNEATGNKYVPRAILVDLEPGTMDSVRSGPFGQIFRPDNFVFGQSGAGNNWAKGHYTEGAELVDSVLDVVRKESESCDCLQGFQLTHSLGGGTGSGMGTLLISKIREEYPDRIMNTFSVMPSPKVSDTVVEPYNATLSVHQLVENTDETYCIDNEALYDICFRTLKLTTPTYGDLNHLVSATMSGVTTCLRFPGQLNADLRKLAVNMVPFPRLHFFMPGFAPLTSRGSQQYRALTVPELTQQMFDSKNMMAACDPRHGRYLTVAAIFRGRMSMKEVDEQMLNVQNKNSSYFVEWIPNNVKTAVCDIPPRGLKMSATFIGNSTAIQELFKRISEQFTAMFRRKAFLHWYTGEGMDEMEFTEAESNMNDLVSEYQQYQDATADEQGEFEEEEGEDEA

Compound | pIC50
COc1cc(CCc2cccc(SC)c(=O)c2)cc(OC)c1OC | 4.92
COc1cc(CCc2cccc(OC)c(=O)c2)cc(OC)c1OC | 5.07
COc1ccc(-c2ccc(OC)c(=O)cc2)c(OC)c1OC | 5.60
